Test results: ChEMBL document CHEMBL1909046, “DrugMatrix in vitro pharmacology data”

Assays:
[1] = DRUGMATRIX: Tumor Necrosis Factor (TNF), Non-Selective radioligand binding (ligand: [125I] TNF-alpha); type: cell membranes, Membrane; details: u-937; Not Active = under 50% inhibition at 10 µM
[2] = DRUGMATRIX: Phosphodiesterase PDE4 enzyme inhibition (substrate: [3H]cAMP + cAMP); details: u-937, Not Active = under 50% inhibition at 10 µM
[3] = target: Protein phosphatase 3 catalytic subunit alpha (Homo sapiens, UniProt Q08209); design: species or system Escherichia coli;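 note: inhibition of calcineurin (PP2B) enzyme activity, measured with DiFMUP as the substrate; in other assays of this panel Not Active means under 50% inhibition at 10 µM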
Adenosine receptor A1 = target: T1, Adenosine receptor A1 (Homo sapiens, UniProt P30542); type: cell membranes, CHO, Membrane; details: cho;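 note: radioligand binding assay at the adenosine A1 receptor, with DPCPX serving as the labelled ligand; in other assays of this panel Not Active means under 50% inhibition at 10 µM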
T1 sequence (P30542 whole entry): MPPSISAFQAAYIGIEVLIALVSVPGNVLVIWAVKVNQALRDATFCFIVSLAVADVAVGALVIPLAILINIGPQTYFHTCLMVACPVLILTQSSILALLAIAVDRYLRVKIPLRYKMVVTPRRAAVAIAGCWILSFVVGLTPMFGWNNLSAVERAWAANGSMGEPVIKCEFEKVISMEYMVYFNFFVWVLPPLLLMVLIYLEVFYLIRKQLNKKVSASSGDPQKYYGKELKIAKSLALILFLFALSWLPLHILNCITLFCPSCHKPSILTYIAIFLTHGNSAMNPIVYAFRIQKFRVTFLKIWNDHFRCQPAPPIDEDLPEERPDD

Substance-K receptor = target: T2, Substance-K receptor (Homo sapiens, UniProt P21452); type: cell membranes, CHO, Membrane; note: in other assays of this panel Not Active means under 50% inhibition at 10 µM
T2 sequence (P21452 whole entry): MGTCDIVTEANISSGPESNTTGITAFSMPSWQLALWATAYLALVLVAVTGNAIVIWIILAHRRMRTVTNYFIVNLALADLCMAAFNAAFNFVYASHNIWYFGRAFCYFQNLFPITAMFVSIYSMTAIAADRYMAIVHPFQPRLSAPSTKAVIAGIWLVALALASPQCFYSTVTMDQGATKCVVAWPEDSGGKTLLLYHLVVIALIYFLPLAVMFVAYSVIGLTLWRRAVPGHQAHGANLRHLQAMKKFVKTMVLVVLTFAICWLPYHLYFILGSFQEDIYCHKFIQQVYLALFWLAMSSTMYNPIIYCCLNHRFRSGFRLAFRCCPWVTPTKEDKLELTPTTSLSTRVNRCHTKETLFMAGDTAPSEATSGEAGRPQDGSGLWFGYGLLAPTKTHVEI

[4] = target: T3, Alpha-1B adrenergic receptor (Rattus norvegicus, UniProt P15823); assay: DRUGMATRIX: Alpha-1B adrenergic receptor radioligand binding (ligand: prazosin); type: cell membranes, Wistar, Liver, Membrane; details: Not Active = under 50% inhibition at 10 µM
T3 sequence (P15823 whole entry): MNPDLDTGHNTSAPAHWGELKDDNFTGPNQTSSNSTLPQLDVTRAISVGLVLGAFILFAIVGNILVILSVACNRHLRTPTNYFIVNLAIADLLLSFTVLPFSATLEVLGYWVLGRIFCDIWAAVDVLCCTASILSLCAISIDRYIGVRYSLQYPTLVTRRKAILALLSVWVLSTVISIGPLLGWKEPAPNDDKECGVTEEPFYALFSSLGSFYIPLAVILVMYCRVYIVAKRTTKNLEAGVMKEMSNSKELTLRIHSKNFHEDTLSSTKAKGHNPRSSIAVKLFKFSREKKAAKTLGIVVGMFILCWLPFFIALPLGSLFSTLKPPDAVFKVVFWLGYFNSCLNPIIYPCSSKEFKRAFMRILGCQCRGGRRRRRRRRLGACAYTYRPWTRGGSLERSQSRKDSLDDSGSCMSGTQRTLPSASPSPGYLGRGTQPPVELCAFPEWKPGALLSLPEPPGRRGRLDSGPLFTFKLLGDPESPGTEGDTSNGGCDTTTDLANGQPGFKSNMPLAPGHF

Row | SMILES | IC50 [1] | Ki [1] | IC50 ([2]; read-out: IC50) [nM] | IC50 [3] | IC50 (Adenosine receptor A1) | IC50 (Substance-K receptor; cho) | IC50 [4] | IC50 [2] | Ki [2] | IC50 (Substance-K receptor; read-out: IC50) [nM] | Ki (Substance-K receptor; read-out: Ki) [nM] | IC50 ([4]; read-out: IC50) [nM] | Ki ([4]; read-out: Ki) [nM]
1 | CCOc1nc2cccc(C(=O)O)c2n1Cc1ccc(-c2ccccc2-c2nnn[nH]2)cc1 | Not Active | Not Active | 276 | Not Active | Not Active | Not Active | Not Active |  |  |  |  |  | 
2 | O=C(O)CCCc1cccs1 | Not Active | Not Active |  | Not Active | Not Active | Not Active | Not Active | Not Active | Not Active |  |  |  | 
3 | COc1ccccc1N | Not Active | Not Active |  | Not Active | Not Active | Not Active | Not Active | Not Active | Not Active |  |  |  | 
4 | O=C(c1ccccc1F)N1CCC(Cc2ccccc2)CC1 | Not Active | Not Active |  | Not Active | Not Active | Not Active | Not Active | Not Active | Not Active |  |  |  | 
5 | Cc1c(O)cccc1C(=O)N[C@@H](CSc1ccccc1)[C@H](O)CN1C[C@H]2CCCC[C@H]2C[C@H]1C(=O)NC(C)(C)C | Not Active | Not Active |  | Not Active | Not Active |  | Not Active | Not Active | Not Active | 29400 | 9790 |  | 
6 | CC(O)COC[C@H]1O[C@@H]2O[C@H]3[C@H](O)[C@@H](O)[C@@H](O[C@H]4[C@H](O)[C@@H](O)[C@@H](O[C@H]5[C@H](O)[C@@H](O)[C@@H](O[C@H]6[C@H](O)[C@@H](O)[C@@H](O[C@H]7[C@H](O)[C@@H](O)[C@@H](O[C@H]8[C@H](O)[C@@H](O)[C@@H](O[C@H]1[C@H](O)[C@H]2O)O[C@@H]8COCC(C)O)O[C@@H]7COCC(C)O)O[C@@H]6COCC(C)O)O[C@@H]5COCC(C)O)O[C@@H]4COCC(C)O)O[C@@H]3COCC(C)O (stereo partly drawn) [2-HYDROXYPROPYL-BETA-CYCLODEXTRIN] | Not Active | Not Active |  | Not Active | Not Active | Not Active | Not Active | Not Active | Not Active |  |  |  | 
7 | NC(=O)c1cccc(N)c1 [3-AMINOBENZAMIDE] | Not Active | Not Active |  | Not Active | Not Active | Not Active | Not Active | Not Active | Not Active |  |  |  | 
8 | C[C@H]1O[C@H](O[C@H]2[C@H](O)[C@@H](O)[C@@H](O[C@H]3[C@H](O)[C@@H](O)C(O)O[C@@H]3CO)O[C@@H]2CO)[C@H](O)[C@@H](O)[C@@H]1N[C@H]1C=C(CO)[C@@H](O)[C@H](O)[C@H]1O (stereo not given in full) [ACARBOSE] | Not Active | Not Active |  | Not Active | Not Active | Not Active | Not Active | Not Active | Not Active |  |  |  | 
9 | CC[C@H]1[C@@H]2C[C@H]3[C@@H]4N(C)c5ccccc5[C@]45C[C@@H]([C@@H]2[C@H]5O)N3[C@@H]1O [AJMALINE] | Not Active | Not Active |  | Not Active | Not Active | Not Active | Not Active | Not Active | Not Active |  |  |  | 
10 | NC12CC3CC(CC(C3)C1)C2 [AMANTADINE] | Not Active | Not Active |  | Not Active | Not Active | Not Active | Not Active | Not Active | Not Active |  |  |  | 
11 | NCCCNCCSP(=O)(O)O [AMIFOSTINE] | Not Active | Not Active |  | Not Active | Not Active | Not Active | Not Active | Not Active | Not Active |  |  |  | 
12 | CN(C)CCC=C1c2ccccc2CCc2ccccc21 [AMITRIPTYLINE] | Not Active | Not Active |  | Not Active | Not Active | Not Active |  | Not Active | Not Active |  |  | 76 | 42
13 | CC(=O)Oc1ccccc1C(=O)O [ASPIRIN] | Not Active | Not Active |  | Not Active | Not Active | Not Active | Not Active | Not Active | Not Active |  |  |  | 
14 | CC(C)c1c(C(=O)Nc2ccccc2)c(-c2ccccc2)c(-c2ccc(F)cc2)n1CC[C@@H](O)C[C@@H](O)CC(=O)O [ATORVASTATIN] | Not Active | Not Active |  | Not Active | Not Active | Not Active | Not Active | Not Active | Not Active |  |  |  | 
15 | CC(=O)OC[C@H]1O[C@@H](n2ncc(=O)[nH]c2=O)[C@H](OC(C)=O)[C@@H]1OC(C)=O [AZARIBINE] | Not Active | Not Active |  | Not Active | Not Active | Not Active | Not Active | Not Active | Not Active |  |  |  | 
16 | C[C@H]1[C@H](NC(=O)/C(=N\OC(C)(C)C(=O)O)c2csc(N)n2)C(=O)N1S(=O)(=O)O [AZTREONAM] | Not Active | Not Active |  | Not Active | Not Active | Not Active | Not Active | Not Active | Not Active |  |  |  | 
17 | O=C(O)CCNC(=O)c1ccc(/N=N/c2ccc(O)c(C(=O)O)c2)cc1 [BALSALAZIDE] | Not Active | Not Active |  | Not Active | Not Active | Not Active | Not Active | Not Active | Not Active |  |  |  | 
18 | COc1cc(OC)c(C(=O)CCCN2CCCC2)c(OC)c1 [BUFLOMEDIL] | Not Active | Not Active |  | Not Active | Not Active | Not Active | Not Active | Not Active | Not Active |  |  |  | 
19 | Cn1c(=O)c2c(ncn2C)n(C)c1=O [CAFFEINE] | Not Active | Not Active |  | Not Active |  | Not Active | Not Active | Not Active | Not Active |  |  |  | 
20 | ClC(Cl)(Cl)Cl [CARBON TETRACHLORIDE] | Not Active | Not Active |  | Not Active | Not Active | Not Active | Not Active | Not Active | Not Active |  |  |  | 
21 | CO/N=C(\C(=O)N[C@@H]1C(=O)N2C(C(=O)O)=C(COC(C)=O)CS[C@H]12)c1csc(N)n1 [CEFOTAXIME] | Not Active | Not Active |  | Not Active | Not Active | Not Active | Not Active | Not Active | Not Active |  |  |  | 
22 | CNC1=Nc2ccc(Cl)cc2C(c2ccccc2)=[N+]([O-])C1 [CHLORDIAZEPOXIDE] | Not Active | Not Active |  | Not Active | Not Active | Not Active | Not Active | Not Active | Not Active |  |  |  | 
23 | Cc1cc(O)cc(C)c1Cl [CHLOROXYLENOL] | Not Active | Not Active |  | Not Active | Not Active | Not Active | Not Active | Not Active | Not Active |  |  |  | 
24 | CCCNC(=O)NS(=O)(=O)c1ccc(Cl)cc1 [CHLORPROPAMIDE] | Not Active | Not Active |  | Not Active | Not Active | Not Active | Not Active | Not Active | Not Active |  |  |  | 
25 | NS(=O)(=O)c1cc(C2(O)NC(=O)c3ccccc32)ccc1Cl (stereo not given) [CHLORTHALIDONE] | Not Active | Not Active |  | Not Active | Not Active | Not Active | Not Active | Not Active | Not Active |  |  |  | 
